# Results as given in EP4710919A1, “INJECTION PREPARATION AND PREPARATION METHOD THEREFOR, AND COMPATIBLE MEDICINAL LIQUID AND PREPARATION METHOD THEREFOR” (Ascentawits Pharmaceuticals, Ltd., priority 2023, dated 2024).
# Experiments:
# Assay type in all cases: physicochemical
# [1] = Compatibility and stability study of ready-to-use intravenous injections (0.02 and 1.00 mg/ml in pH-adjusted 5% glucose injection); conditions: after filtration, room temperature, indoor ambient lighting
# Description: In order to provide compatibility information for the injection of the compound of formula I (Compound A, API) and the compatibility solutions, it is necessary to investigate the short-term stability of the injection in 5% glucose injection, a commonly used intravenous diluent. Considering that the API is instable in acidic environments, the pH of the 5% glucose injection is first adjusted to 7.4 using a sodium bicarbonate solution.
# 1.0 ml of 5% sodium bicarbonate injection was added to 250 ml of 5% glucose injection to adjust the pH, and mixed homogeneously. At this point, the pH of the mixed solution was approximately 8.0.
# The Compound A injection (2 ml: 20 mg) was prepared with the pH-adjusted 5% glucose injection into a compatibility solution with a concentration of 0.02 mg/ml, and a compatibility solution with a concentration of 1.00 mg/ml.
# 0.501 ml of Compound A injection (2 ml: 20 mg) was added to a mixing bag containing 250 ml of 5% glucose injection (whose pH had been pre-adjusted using 5% sodium bicarbonate injection). The mixing bag was repeatedly inverted to ensure homogeneous mixing of the mixed solution before storage and sampling.
# 27.8 ml of Compound A injection (2 ml: 20 mg) was added to a mixing bag containing 250 ml of 5% glucose injection (whose pH had been pre-adjusted using 5% sodium bicarbonate injection). […]
# [2] = Chiral stability study of the concentrated Compound A injection (-20±5°C, HPLC contents of A-P1 and A-P2); conditions: in its injection formulation
# Description: (§1) Compound A is a racemic mixture containing one chiral center. Its two isomers, named A-P1 and A-P2, can be obtained by resolving Compound A. During the formulation and compatibility studies, interconversion between the chiral isomers may affect the drug safety. Therefore, it is necessary to study the chiral stability of Compound A in both its injection formulation and the compatibility drug solution of the injection formulation.
# (§2) • (a) The concentrated injection formulation of Compound A (2 ml: 20 mg) was prepared according to the aforementioned confirmed Formulation F19 and its preparation method. • (b) The compatibility drug solution with a concentration of 1.00 mg/ml was prepared according to the process for preparing a compatibility solution as described in Section 5.1.
# For the injection formulation of Compound A (concentrated injection), the formulation was stored under light-protected, sealed conditions at -20±5°C. Samples were taken at different time points (0 month, 1 month, 3 months), and the contents of A-P1 and A-P2 were determined using the aforementioned HPLC method for stability evaluation.
# [3] = Stability of Compound A in formulations with different adjuvants at 2-8°C (HPLC content, total impurities, moisture); conditions: stored at 2-8°C for 10 days; all formulation solvent systems
# Description: For the aforementioned treated Formulations F1 to F4, their specific formulation information is as follows ("p": the formulation obtained by adding ELP to the formulations in Table 3): • F1p: 300 mg API, 7.5 g ELP, and absolute ethanol added to 30 ml; • F2-1p: 3 g propylene glycol, 300 mg API, 7.5 g ELP, and absolute ethanol added to 30 ml; • F2-2p: 9 g propylene glycol, 300 mg API, 7.5 g ELP, and absolute ethanol added to 30 ml; • F3-1p: 1.5 g glycerin, 300 mg API, 7.5 g ELP, and absolute ethanol added to 30 ml; • F3-2p: 4.5 g glycerin, 300 mg API, 7.5 g ELP, and absolute ethanol added to 30 ml; • F4-1: 3 g DMA, 300 mg API, and absolute ethanol added to 30 ml; • F4-2: 9 g DMA, 300 mg API, and absolute ethanol added to 30 ml; • F4-3: 15 g DMA, 300 mg API, and absolute ethanol added to 30 ml.
# The stability of Compound A in the aforementioned formulations was investigated. At the predetermined time points (Day 0, Day 5, Day 10), 1 ml samples were taken for HPLC analysis to detect the content, total impurities, and moisture, respectively. Table 4: Stability of Compound A in formulations with different adjuvants at 2-8°C
# [4] = Solubility of Compound A in formulations with different adjuvants, observations before and after treatment
# Source text: Compound A and Compound AST-3424 are structurally similar (both are nitrobenzyl derivatives and linked to a DNA alkylating agent with an aziridine structure that can effectively kill tumor cells). In addition, by releasing the DNA alkylating agent with an aziridine structure in tumor tissues or cells that overexpress the AKR1C3 enzyme, both compounds enable targeted recognition and treatment of any of the tumor tissues or cells that overexpress […] 1C3 (AKR1C3), and achieve the purpose of killing the tumor tissues or cells. Therefore, based on the same formulation development strategy, the inventors designed and selected an injection formulation similar to that of Compound AST-3424 (the optimal formulation of AST-3424: 10 mg/ml Compound AST-3424 + 75% ethanol + 25% propylene glycol) for use in the formulation study of Compound A.
# In addition to the solvents used in the reference formulation of Compound AST-3424, absolute ethanol was employed as a commonly used and relatively safe non-aqueous solvent adjuvant for injection formulations. During the development of the product formulation, it was considered to add N,N-dimethylacetamide (DMA) or polyoxyethylene (35) castor oil (ELP) to improve solubility and facilitate the manufacturing convenience. […]
# [5] = Solubility of Compound A in single adjuvant solvents at 25°C (supersaturated solution, sampled every 2 hours); conditions: organic solvent or mixture, thermodynamic from solid; for solubility at 0 h / solubility at 2 h / solubility at 4 h / solubility at 6 h: single solvent
# Description: In order to increase the concentration of the active pharmaceutical ingredient in the injection, the solubility of the active pharmaceutical ingredient in single adjuvants was investigated to screen for optimal solvents, hydrotropic agents, or solubilizers. The solubility test of Compound A in single solvents was conducted as follows: Each of the single solvents was taken, a certain amount of API (the compound of formula I) was added at 25°C and stirred, and the dissolution of the API in the solvent system was observed. If the dissolution was complete, additional API was added continuously until a supersaturated solution was obtained. Samples were taken every 2 hours, filtered and assayed for content. Table 2: Solubility data of Compound A in single solvents at 25°C
# [6] = Chiral stability study of the 1.00 mg/ml compatibility drug solution of Compound A (room temperature, HPLC contents of A-P1 and A-P2); conditions: in the compatibility solution of the injection formulation
# Description: as §1, §2
# For the 1.00 mg/ml compatibility drug solution (ready-to-use injection), the solution was stored at room temperature (25°C ± 2°C) under indoor ambient lighting. Samples were taken at different time points (0 h, 2 h, 4 h, 8 h and 24 h) and the contents of A-P1 and A-P2 were determined using the aforementioned HPLC method to evaluate chiral stability. Table 27: Chiral stability study of the concentrated Compound A injection
# [7] = Solubility of Compound A in single solvents (water, acidic and alkaline aqueous solutions, isopropanol, methanol) at 25°C
# Description: The solubility of Compound A in single solvents (water, acidic and alkaline aqueous solutions, isopropanol, and methanol) was investigated. Table 1: Solubility investigation of Compound A at 25°C
# [8] = Polyethylene glycol 400 (PEG 400)
# [9] = Polyoxyethylene (35) castor oil (ELP)
compound,measurement,setting,value
O=[N+]([O-])c1ccc(C(OP(=O)(N2CC2)N2CC2)C(F)(F)F)cc1Oc1ccc(-c2ccc(F)cc2)c(F)c1 (racemic) [Compound A],"changes in traits, color and clarity of solution, osmotic pressure, pH value, content of Compound A, and related substances","[1]; 0.02 mg/ml compatibility solutions, within 8 hours",no significant changes
same,"changes in traits, color and clarity of solution, osmotic pressure, pH value, and content of Compound A","[1]; 1.00 mg/ml compatibility solutions, within 6 hours",no significant changes
same,chiral stability,[2],chirally stable
same,"stability with respect to content, total impurities, and moisture",[3],remained relatively stable
same,dissolution of Compound A,"[4]; formulation prepared based on the formulation design of Compound AST-3424 (ethanol:propylene glycol 3:1, 300 mg in 30 ml)",cannot be completely dissolved
same,Solubility,[4]; mixed solvent of ethanol and propylene glycol,poorly soluble
same,Solubility,"[5]; N,N-dimethylacetamide (single solvent), in N,N-dimethylacetamide",> 200 mg/mL
same,Solubility,"[5]; polyoxyethylene (35) castor oil (single solvent), in polyoxyethylene (35) castor oil",~20 mg/mL
same,solubility at 0 h,[5]; Ethanol,8.95 mg/mL
same,solubility at 2 h,[5]; Ethanol,9.09 mg/mL
same,solubility at 4 h,[5]; Ethanol,9.43 mg/mL
same,solubility at 6 h,[5]; Ethanol,9.28 mg/mL
same,solubility at 0 h,"[5]; N,N-Dimethylacetamide (DMA)",248 mg/mL
same,solubility at 2 h,"[5]; N,N-Dimethylacetamide (DMA)",251 mg/mL
same,solubility at 4 h,"[5]; N,N-Dimethylacetamide (DMA)",251 mg/mL
same,solubility at 6 h,"[5]; N,N-Dimethylacetamide (DMA)",251 mg/mL
same,solubility at 0 h,[5]; [8],12.2 mg/mL
same,solubility at 2 h,[5]; [8],11.2 mg/mL
same,solubility at 4 h,[5]; [8],15.3 mg/mL
same,solubility at 6 h,[5]; [8],16 mg/mL
same,solubility at 0 h,[5]; [9],18.6 mg/mL
same,solubility at 2 h,[5]; [9],20.7 mg/mL
same,solubility at 4 h,[5]; [9],20.7 mg/mL
same,solubility at 6 h,[5]; [9],21.3 mg/mL
same,chiral stability,[6],chirally stable
same,Solubility,"[7]; 0.1 mol/L HCl solution, 25°C",Practically insoluble
same,Solubility,"[7]; 0.1 mol/L NaOH solution, 25°C",Practically insoluble
same,Solubility,"[7]; Isopropanol, 25°C",Practically insoluble
same,Solubility,"[7]; Methanol, 25°C",Sparingly soluble
same,Solubility,"[7]; Water, 25°C",Practically insoluble
same,Solubility,"[7]; in water, and acidic and alkaline aqueous solutions",extremely low solubility
